9 compounds from ChEMBL document CHEMBL4052706, “Isolation, structure elucidation, and synthesis of antiplasmodial quinolones from Crinum firmifolium” (Bioorg Med Chem, 2017) can be followed below.

The subject of test [1] is Plasmodium falciparum. Briefly: Antiplasmodial activity against chloroquine/mefloquine-resistant Plasmodium falciparum Dd2 incubated for 72 hrs by SYBR green 1 dye based fluorescence assay. The test is classed as functional. Particulars: Dd2, 72 h.
Test [2] relates to Plasmodium falciparum. Briefly: Antiplasmodial activity against chloroquine-sensitive Plasmodium falciparum 3D7 incubated for 72 hrs by SYBR green 1 dye based fluorescence assay. It is filed as functional. Particulars: 3D7, 72 h.
In another test the test system is A2780. Kind of test: Antiproliferative activity against human A2780 cells after 2 days by Alamar blue assay. The test is classed as cell-based. Particulars: A2780, 48 h. For orientation: Alamar Blue is a resazurin reagent that responds to reducing activity.
Test [3] is described as follows: Selectivity ratio of IC50 for human A2780 cells to IC50 for chloroquine/mefloquine-resistant Plasmodium falciparum Dd2.

Molecules are shown by their SMILES. pIC50: −log10 of the molar value.

In the case of `CCCC(C)CCCc1cc(=O)c2ccccc2[nH]1` (centres undefined), the figures for the pIC50 in the test on Plasmodium falciparum [1], in the test on Plasmodium falciparum [2] and in the test with A2780 were 6.48, 6.41 and 4.54, respectively. Further, in test [3], the “Ratio IC50” value was 89.

For the compound `CC(=O)O[C@H]1C(=O)[C@@]2(C)[C@H]([C@H](OC(=O)c3ccccc3)[C@]3(O)C[C@H](OC(=O)[C@H](O)[C@@H](NC(=O)c4ccccc4)c4ccccc4)C(C)=C1C3(C)C)[C@]1(OC(C)=O)CO[C@@H]1C[C@@H]2O` [PACLITAXEL], in the test on A2780, the pIC50 (commonly the negative decadic logarithm of the IC50, by convention in mol/L) was 7.86.

For `C[C@@H]1CC[C@H]2[C@@H](C)C(=O)O[C@@H]3O[C@@]4(C)CC[C@@H]1[C@]32OO4` [ARTEMISININ], the pIC50 in the test on Plasmodium falciparum [1] is 8.05; with Plasmodium falciparum [2], 8.23.

In the case of `CC(C)CCCCCc1cc(=O)c2ccccc2[nH]1`, the pIC50 in the test on Plasmodium falciparum [1] was 6.23; in the test with Plasmodium falciparum [2], 6.30; with A2780, 4.47. In addition, the “Ratio IC50” value in test [3] is given as 57.7.

On to `CCCCCCCc1cc(=O)c2ccccc2[nH]1`, for which the pIC50 in the test on Plasmodium falciparum [1] was 5.88; with A2780, 4.46.

Take `CNc1ccccc1-c1cc2c(cc1CO)OCO2`: the pIC50 in the test on Plasmodium falciparum [1] is < 4.41; with A2780, < 4.11.

Turning to `CCCCCCCCc1cc(=O)c2ccccc2[nH]1`, the pIC50 is 5.44 in the test on Plasmodium falciparum [1] and 4.92 in the test on A2780. In addition, the “Ratio IC50” value in test [3] stood at 3.4.

For the compound `COc1cc2c(cc1O)c(=O)n1ccc3cccc2c31`, the results for the pIC50 with Plasmodium falciparum [1] and with A2780 were < 4.42 and < 4.12, respectively.

For `CCC(C)CCCCc1cc(=O)c2ccccc2[nH]1` (centres undefined), the figures for the pIC50 in the test with Plasmodium falciparum [1], with Plasmodium falciparum [2] and in the test on A2780 were 6.12, 6.04 and 5.06, respectively. The “Ratio IC50” value in test [3] stood at 11.6.
